{
  "source": "patent US20050143336A1",
  "about": "(priority 2003, published 2005)",
  "key": {"[1]": {"tested_on": "luciferase expression in RAW 264.7 cells", "conditions": "RAW 264.7, 0.5 mM naproxen pretreatment", "protocol": "To determine the effect of inhibitors on transgene expression, cells were transfected with a marker gene, luciferase (luc), complexed with nanoparticle. All other experimental conditions were the same as described above. […] Luciferase expression was expressed as relative light units per mg of protein (RLU/mg). Assays were performed in triplicates. Experiments were performed two times and the results represented as the average of two separate experiments."}, "mouse TNF-α": {"tested_on": "mouse TNF-α", "conditions": "naproxen 15 mg/Kg orally 3 h prior to FUS1-nanoparticles 100 μg DNA i.v.", "protocol": "In vivo experiments. To determine the effect of intravenous administration of FUS1-nanoparticles on inflammation and the potential use of inhibitors, in vivo experiments were conducted in immunocompetent female C3H mice. Mice were divided into three groups (n=5/group). […] Group 3 received intravenous injection of FUS1-nanoparticles only. The amount of plasmid DNA injected was 100 μg. […] At 2 h, 4 h, 6 h and 15 h after treatment with FUS1-nanoparticles, animals were euthanized and blood and organs (lung, liver, spleen) collected. Blood samples were analyzed for mouse TNF-α by ELISA (R&D Systems, MI). Tissue samples were analyzed for expression of inflammation-associated signaling molecules by western blotting (Ito et al., 2003)."}, "C3H mice [2]": {"tested_on": "C3H mice", "type": "in vivo", "conditions": "for protection: alive on day 14", "experimental": "In vivo treatment of immunocompetent animals by intravenous injection of DOTAP:Cholesterol-FUS1 complex. Female C3H mice were divided into 3 groups (n=5/group). […] Complexes were injected intravenously via tail vein in a total volume of 200 μl. Animals were monitored initially at 1, 2, 6, 24, 48 hr and later every day until day 14. Animals that appeared morbid or moribund were euthanized by CO2 inhalation and various organs (lung, liver, kidneys, spleen, heart) were collected in buffered formalin and submitted for histopathological examination. Organs were also collected from animals that were dead, and these were submitted for histopathological analyses."}, "luciferase expression": {"tested_on": "luciferase expression", "test": "Luciferase transgene expression in cells transfected with luc-nanoparticles", "type": "cell-based, Human", "conditions": "naproxen prior to luc-nanoparticles; 2 h, 4 h, 15 h", "protocol": "To determine the effect of inhibitors on transgene expression, cells were transfected with a marker gene, luciferase (luc), complexed with DOTAP:Chol. nanoparticles (luc-nanopartilces). All other experimental conditions were the same as described above. Luciferase expression was determined using the luciferase assay kit (Promega, Madison, Wis.) as previously described (Ramesh et al., 2001b). Luciferase expression was expressed as relative light units per mg of protein (RLU/mg). Assays were performed in triplicates. Experiments were performed two times and the results represented as the average of two separate experiments."}, "[3]": {"tested_on": "serum TNF-α, IL-6, Il-1α and IFN-γ", "test": "Serum cytokine profile after FUS1-nanoparticle with or without naproxen (ELISA)", "type": "in vivo, C3H mice", "conditions": "naproxen 15 mg/kg orally pretreatment", "experimental": "(§1) Cytokine profiles, Organ toxicity and Signalling molecules in C3H mice. To determine the cytokine profile, organ toxicity, signaling molecules responsible for inflammation, experiments were performed using immunocompetent female C3H mice. […] The amount of FUS1 plasmid injected was 100 μg. Serum and organ cytokine levels were determined by ELISA for murine TNF-α and murine Il-6. At indicated times after injection, blood was obtained via aspiration after right heart puncture. The blood was allowed to stand for 4 hours at 4° C. and then was centrifuged twice at 15,000 g for 10 minutes at 4° C. The supernatants (serum) were kept at −80° C. until used. Cytokine concentrations were quantified using specific ELISA kits (R&D systems) according to manufacturer's instructions. Organs were collected at 2, 4, and 15 h and were snap-frozen in liquid nitrogen and stored at […] until time of ELISA and Western blot analysis. At the time of ELISA, organs were slowly thawed on ice. The lung, liver and spleen was homogenized in 750 μl PBS containing a cocktail of protease inhibitors using a tissue homogenizer. The cytoplasmic fraction was isolated as the supernatant fraction following centrifugation at 15,000 g for 20 min at 4° C. The supernatant was used for the determination of TNF-α and IL-6 were quantitated by ELISA kits purchased from R&D Sytems and Biosource.fraction."}, "[4]": {"tested_on": "p38MAPK, JNK, p44/42 MAPK, ATF2, cJun, STAT3, COX-2 in RAW 264.7 cells", "test": "Signaling molecules in RAW 264.7 macrophage cells transfected with FUS1-nanoparticle (western blot)", "type": "cell-based, Mouse", "experimental": "In vitro experiments. To determine the effect of nanoparticle-FUS1 complex on the activation of signaling molecules associated with inflammation, RAW macrophage cells were seeded in six-well plates (1×10^6 cells/well) and incubated overnight at 37° C. and 5% CO2. The following day, tissue culture medium was replaced with fresh 0.2% medium and incubated overnight at 37° C. and 5% CO2. […] Two-three hours after treatment, cells were transfected with FUS1-nanoparticle (2.5 μg DNA) in 0.2% serum medium. Cells were harvested at different time-points (2 h, 4 h, 15 h) after transfection, washed, and cell lysates prepared as previously described (Ramesh et al., 2001a). Untransfected cells treated with PBS served as control in these experiments. Cell lysates were subjected to western blotting analysis and probed with various antibodies as previously described (Ito et al., 2003). In all the experiments, β-actin was detected using anti-β-actin antibody (Sigma Chemicals, St. Louis, Mo.) as a measure of internal loading control."}, "lung tumor cells": {"tested_on": "lung tumor cells", "conditions": "luc-nanoparticles in the presence of naproxen"}, "[5]": {"tested_on": "TNF-α, IL-6 in lungs, liver and spleen", "test": "Organ cytokine levels (lungs, liver, spleen) after FUS1-nanoparticle with or without naproxen (ELISA)", "type": "in vivo, C3H mice", "conditions": "naproxen 15 mg/kg orally pretreatment", "experimental": "as §1"}, "[6]": {"tested_on": "proinflammatory cytokines (TNF, IL-1, IL-6, IFN-γ)", "type": "in vivo, C3H mice", "experimental": "In vivo treatment of immunocompetent animals by intravenous injection of DOTAP:Cholesterol-FUS1 complex. Female C3H mice were divided into 2 groups (n=15/group). […] Complexes were injected intravenously via the tail vein using a total volume of 200 μl. […] Blood from animals in all groups were collected at 2, 4, 6, and 15 h after injection of liposome-DNA complex, and analyzed for proinflammatory cytokines (TNF, IL-1, IL-6, IFN-γ) by ELISA (R&D Systems)."}, "C3H mice [7]": {"tested_on": "C3H mice"}, "[8]": {"tested_on": "FUS1 protein expression in the lungs", "conditions": "naproxen 15 mg/kg orally 2 hour prior to i.v. DOTAP:Chol-FUS1 complex vs complex alone", "experimental": "In vivo treatment of immunocompetent animals by intravenous injection of DOTAP:Cholesterol-FUS1 complex. Female C3H mice were divided into 3 groups (n=12/group). […] Lung tissues were later homogenized, and total protein lysates prepared. Protein concentration in the lysate were determined by the BCA method and analyzed for FUS1 expression by western blot analysis. FUS1 protein was detected using a anti-FUS1 antibody. Untreated animals served as controls."}, "[9]": {"tested_on": "p38MAPK, pJNK, p44/42MAPK, pATF2, pc-JUN, COX-2 in lung tissues", "test": "Inflammation-associated signaling molecules in lung tissues after FUS1-nanoparticles (western blot)", "type": "in vivo, C3H mice", "conditions": "naproxen prior to FUS1-nanoparticles"}},
  "note": "Entries after “also recorded” stand apart in the source; their conditions may differ. Read-outs that look alike come from different tables or passages of the source.",
  "data": [
    {"molecule": "COc1ccc2cc([C@H](C)C(=O)O)ccc2c1", "note": "[Naproxen, naproxen]", "values": [
      {"measurement": "transgene (luciferase) expression", "setting": "[1]", "value": "did not inhibit transgene (luciferase) expression but rather slightly enhanced the transgene expression over time"},
      {"measurement": "TNF-α expression levels in blood at 2 h", "setting": "mouse TNF-α", "value": 411, "unit": "pg/mL"},
      {"measurement": "protection", "setting": "C3H mice [2]; naproxen 5 mg/kg orally 2 hour prior to complex (100 μg DNA) i.v.", "value": 60, "unit": "%"},
      {"measurement": "protection", "setting": "C3H mice [2]; naproxen 15 mg/kg orally 2 hour prior to complex (100 μg DNA) i.v.", "value": 100, "unit": "%"},
      {"measurement": "Diagnosis (histopathology)", "setting": "C3H mice [2]; naproxen before complex, 15 hr", "value": "almost completely prevented all the inflammatory features except moderate lymphoid atrophy spleen"},
      {"measurement": "luciferase activity (RLU/mg protein), naproxen treated vs untreated", "setting": "luciferase expression", "value": "greatly increased; also recorded: slight increase in luciferase activity"},
      {"measurement": "serum TNF-α, IL-6, Il-1α and IFN-γ levels induced by FUS1-nanoparticle", "setting": "[3]", "value": "significantly inhibited"},
      {"measurement": "p38MAPK, pJNK, pATF-2 and pcjun", "setting": "[4]; RAW 264.7, 0.5 mM naproxen pretreatment, 2 and 4 h", "value": "significantly inhibited"},
      {"measurement": "phosphorylation of STAT 3", "setting": "[4]; RAW 264.7, 0.5 mM naproxen, 4 and 15 h", "value": "inhibited"},
      {"measurement": "expression of COX-2", "setting": "[4]; RAW 264.7, 0.5 mM naproxen, 4 h", "value": "inhibited"},
      {"measurement": "transgene expression", "setting": "lung tumor cells", "value": "Enhanced transgene expression"},
      {"measurement": "TNF-α, IL-6 levels in lungs, liver and spleen", "setting": "[5]", "value": "significantly inhibited"},
      {"measurement": "reduction in all of the cytokine levels", "setting": "[6]; naproxen 15 mg/kg 2 hour before DOTAP:Chol-FUS1 complex (100 μg DNA) i.v., serum", "value": 50, "unit": "%"},
      {"measurement": "proinflammatory cytokine production, effect of naproxen", "setting": "[6]; naproxen 15 mg/kg before complex", "value": "significant suppression of proinflammatory cytokine production"},
      {"measurement": "percentage of survival", "setting": "C3H mice [7]; naproxen 5 mg/kg orally 2 to 3 h before FUS1-nanoparticle (100 μg FUS1)", "value": 50, "unit": "%"},
      {"measurement": "percentage of survival", "setting": "C3H mice [7]; naproxen 15 mg/kg orally 2 to 3 h before FUS1-nanoparticle (100 μg FUS1)", "value": 100, "unit": "%"},
      {"measurement": "FUS1 protein expression in the lungs", "setting": "[8]", "value": "No significant differences"},
      {"measurement": "activation of signaling molecules in lung", "setting": "[9]", "value": "markedly suppressed"}
    ]}
  ]
}
